According to US20260116908A1, “TYLOSIN DERIVATIVE AND PREPARATION METHOD AND APPLICATION THEREOF” (Institute of Feed Research, Chinese Academy of Agricultural …, priority 2023, published 2026):
Converted amounts (≈) assume the structure as drawn.

How the values were obtained:
Type in all cases: cell-based
[1] = system: Streptococcus agalactiae CVCC3940; test: MIC by broth microdilution, Streptococcus agalactiae
Protocol: (§1) The antibacterial activity of the tylosin derivative Ia and the antibacterial activity of the tylosin derivative Ib of the present invention were determined by using the broth microdilution method with tylosin as a positive control. A broth culture medium was added into a 96-well plate, a prepared compound solution was diluted in a trace two-fold decreasing concentration, and then was inoculated with an appropriate amount of bacterial solution. After incubation for 24 hours, the minimum inhibitory concentration of the compound was observed. The culture medium used in the experiment was CAMHB broth and CAMHB+5% defibrillated sheep blood broth. The preserved bacteria strain was inoculated into a serum plate medium and cultured at 37° C. for 16-18 hours. An appropriate amount of bacteria after the completion of subculture and saline were placed into a turbidimetric tube and calibrated to the McFarland standard with a McFarland turbidimeter. The bacterial suspension was diluted 10 times with saline to prepare test bacterial solutions of certain concentrations (5×10^5 to 5×10^6 cfu/mL) for later use. Tylosin and the compounds obtained in the examples were dissolved in methanol to the desired concentration of each compound (1.0 mg/mL), stored in sterilized brown vials, stoppered, and sealed for later use. […]

[2] = system: Streptococcus pneumoniae ATCC 49169; test: MIC by broth microdilution, Streptococcus pneumoniae; conditions: for MIC: Streptococcus pneumoniae, ATCC49169, final compound (after hydrolysis), 96-well two-fold dilution, 37° C., 24 hours; for antibacterial effect on Streptococcus pneumoniae before versus after hydrolysis: before vs after hydrolysis
Protocol: (§2) The antibacterial activity of the tylosin derivative Ia and the antibacterial activity of the tylosin derivative Ib of the present invention were determined by using the broth microdilution method with tylosin as a positive control. A broth culture medium was added into a 96-well plate, a prepared compound solution was diluted in a trace two-fold decreasing concentration, and then was inoculated with an appropriate amount of bacterial solution. After incubation for 24 hours, the minimum inhibitory concentration of the compound was observed. The culture medium used in the experiment was CAMHB broth and CAMHB+5% defibrillated sheep blood broth. The preserved bacteria strain was inoculated into a serum plate medium and cultured at 37° C. for 16-18 hours. An appropriate amount of bacteria after the completion of subculture and saline were placed into a turbidimetric tube and calibrated to the McFarland standard with a McFarland turbidimeter. The bacterial suspension was diluted 10 times with saline to prepare test bacterial solutions of certain concentrations (5×10^5 to 5×10^6 cfu/mL) for later use. Tylosin and the compounds obtained in the examples were dissolved in methanol to the desired concentration of each compound (1.0 mg/mL), stored in sterilized brown vials, stoppered, and sealed for later use. The working concentration range against Gram-negative bacteria was 0.25 μg/mL to 128 μg/mL; and the working concentration range against Gram-positive bacteria was […] to 50 μg/mL. The 96-well plate micro double dilution method was used. […] Finally, the prepared bacterial solution (of a concentration of 5×10^5 to 5×10^6 cfu/mL) was added into the first well to the eleventh well, and the twelfth well was not added with the bacterial solution to serve as a blank control. The 96-well plate was placed in a 37° C. incubator, cultured in a static state for 24 hours to observe the bacterial growth in each well. The solution in the well that inhibited bacterial growth was transparent, and the solution in the well that could not inhibit bacterial growth was turbid. The concentration corresponding to the well with a transparent solution was selected to be the minimum inhibitory concentration (MIC) of the sample.

[3] = system: Staphylococcus aureus ATCC 29737; test: MIC by broth microdilution, Staphylococcus aureus
Protocol: as §1

[4] = system: Escherichia coli ATCC 8099; test: MIC by broth microdilution, Escherichia coli; conditions: for MIC: Escherichia coli, ATCC8099, final compound (after hydrolysis), 96-well two-fold dilution, 37° C., 24 hours; for antibacterial effect on Escherichia coli before versus after hydrolysis: before vs after hydrolysis
Protocol: as §2

CC[C@H]1OC(=O)C[C@@H](O)[C@H](C)[C@@H](O[C@@H]2O[C@H](C)[C@@H](O)[C@H](N(C)C)[C@H]2O)[C@@H](CCNCCCO)C[C@@H](C)C(=O)/C=C/C(C)=C/[C@@H]1CO[C@@H]1O[C@H](C)[C@@H](O)[C@@H](OC)[C@H]1OC [Ia, 20-(3-hydroxypropylamino)desmycosin]
MIC ([1]; Streptococcus agalactiae, CVCC3940, after hydrolysis, 96-well two-fold dilution, 37° C., 24 hours): 1.56 µg/mL (≈ 1.88 µM)
antibacterial activity against Streptococcus agalactiae before versus after hydrolysis ([1]; before vs after hydrolysis): stronger before the hydrolysis
MIC [2]: 0.391 µg/mL (≈ 0.47 µM)
antibacterial effect on Streptococcus pneumoniae before versus after hydrolysis [2]: comparable
in vitro antibacterial activity against Streptococcus pneumoniae compared with tylosin [2]: higher in vitro antibacterial activity
MIC ([3]; Staphylococcus aureus, ATCC29737, after hydrolysis, 96-well two-fold dilution, 37° C., 24 hours): 0.781 µg/mL (≈ 0.94 µM)
antibacterial activity against Staphylococcus aureus before versus after hydrolysis ([3]; before vs after hydrolysis): stronger after the hydrolysis
MIC [4]: 128 µg/mL (≈ 154 µM)
antibacterial effect on Escherichia coli before versus after hydrolysis [4]: comparable

CC[C@H]1OC(=O)C[C@@H](O)[C@H](C)[C@@H](O[C@@H]2O[C@H](C)[C@@H](O)[C@H](N(C)C)[C@H]2O)[C@@H](CCN2CCC[C@@H]2CO)C[C@@H](C)C(=O)/C=C/C(C)=C/[C@@H]1CO[C@@H]1O[C@H](C)[C@@H](O)[C@@H](OC)[C@H]1OC [Ib, 20-((R)-2-hydroxymethyltetrahydropyrrolyl)desmycosin]
MIC [2]: 0.098 µg/mL (≈ 0.114 µM)
antibacterial effect on Streptococcus pneumoniae before versus after hydrolysis [2]: doubled after the hydrolysis
in vitro antibacterial activity against Streptococcus pneumoniae compared with tylosin [2]: higher in vitro antibacterial activity
MIC [4]: 64 µg/mL (≈ 74.7 µM)
antibacterial effect on Escherichia coli before versus after hydrolysis [4]: comparable
in vitro antibacterial activity against Escherichia coli compared with tylosin ([4]; compared with tylosin): higher in vitro antibacterial activity

CC[C@H]1OC(=O)C[C@@H](O)[C@H](C)[C@@H](O[C@@H]2O[C@H](C)[C@@H](O[C@H]3C[C@@](C)(O)[C@@H](O)[C@H](C)O3)[C@H](N(C)C)[C@H]2O)[C@@H](CC=O)C[C@@H](C)C(=O)/C=C/C(C)=C/[C@@H]1CO[C@@H]1O[C@H](C)[C@@H](O)[C@@H](OC)[C@H]1OC [Tylosin]
MIC [2]: 0.781 µg/mL (≈ 0.853 µM)
MIC [4]: 128 µg/mL (≈ 140 µM)
